Biological target: T1, recombinant T. circumcincta DPY-31 (Tc rDPY-31) (Teladorsagia circumcincta, UniProt A0A0C5PRQ1)
T1 construct: catalytic astacin domain only (684 bp codon-optimised synthetic gene), His-tagged, pET-28a(+) NdeI/XhoI, E. coli BL21 (DE3), Ni-NTA, 23 kDa; full-length precursor 614 residues
T1 sequence (A0A0C5PRQ1 151-378 limits assumed): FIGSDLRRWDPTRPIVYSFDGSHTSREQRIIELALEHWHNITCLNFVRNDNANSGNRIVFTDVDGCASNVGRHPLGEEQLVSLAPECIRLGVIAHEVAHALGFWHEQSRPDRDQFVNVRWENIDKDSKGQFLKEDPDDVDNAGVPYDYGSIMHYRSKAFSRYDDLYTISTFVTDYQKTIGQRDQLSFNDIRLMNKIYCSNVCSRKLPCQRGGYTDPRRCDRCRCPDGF
Assay: chromogenic protease assay, Suc-Ala-Ala-Ala-pNA, […] nm
Format: biochemical
Settings: read-out: Effective concentration against T. circumcincta rDPY-31 ^d

`CCCCC[C@H](CC(=O)NO)C(=O)N[C@H](C(=O)N1CCC[C@H]1CO)C(C)C` [Actinonin] was tested, and the IC50 was 50 µM.

— publication PMC4406453, “A highly conserved, inhibitable astacin metalloprotease from Teladorsagia circumcincta is required for cuticle formation and nematode development^” (International Journal for Parasitology, 2015)
